According to patent publication US20140051679A1, “KINASE INHIBITORS AND METHOD OF TREATING CANCER WITH SAME” (UNIVERISTY HEALTH NETWORKS, priority 2011, published 2014):

Legend:
[1] = biological target: T1, human TTK (Homo sapiens, UniProt P33981); assay: TTK inhibition assay (indirect ELISA); type: biochemical; conditions: GST-TTK 0.68 nM, 16 μM ATP; read-out: IC50 Ranges TTK
T1 construct: amino terminal GST fusion of full length human TTK; purchased Invitrogen
T1 sequence (P33981 1-857): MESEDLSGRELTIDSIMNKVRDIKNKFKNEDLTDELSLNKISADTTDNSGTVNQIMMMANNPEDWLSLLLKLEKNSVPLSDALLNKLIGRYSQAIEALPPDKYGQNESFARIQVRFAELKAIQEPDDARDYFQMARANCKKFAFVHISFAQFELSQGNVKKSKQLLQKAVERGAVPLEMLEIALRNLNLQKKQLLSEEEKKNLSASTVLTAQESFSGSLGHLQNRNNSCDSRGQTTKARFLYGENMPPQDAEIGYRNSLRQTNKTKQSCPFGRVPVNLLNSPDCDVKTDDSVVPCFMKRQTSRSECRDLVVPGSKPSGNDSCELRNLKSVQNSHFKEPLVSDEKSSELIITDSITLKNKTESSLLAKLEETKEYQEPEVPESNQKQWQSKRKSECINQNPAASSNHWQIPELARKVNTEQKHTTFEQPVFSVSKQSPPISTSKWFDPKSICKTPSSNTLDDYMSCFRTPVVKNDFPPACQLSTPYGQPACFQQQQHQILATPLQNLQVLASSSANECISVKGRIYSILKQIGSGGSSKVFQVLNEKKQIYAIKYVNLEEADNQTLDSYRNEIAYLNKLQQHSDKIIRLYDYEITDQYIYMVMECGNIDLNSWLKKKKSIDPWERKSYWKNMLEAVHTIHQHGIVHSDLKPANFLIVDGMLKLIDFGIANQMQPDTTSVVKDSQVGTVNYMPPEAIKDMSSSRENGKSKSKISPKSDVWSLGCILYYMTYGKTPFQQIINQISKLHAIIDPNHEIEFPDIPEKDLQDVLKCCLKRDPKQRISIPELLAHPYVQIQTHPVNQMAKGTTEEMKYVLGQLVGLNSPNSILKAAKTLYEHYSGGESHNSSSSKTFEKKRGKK

[2] = biological target: T2, Aurora B (Homo sapiens, UniProt Q96GD4); assay: Aurora B inhibition assay (Z-Lyte); type: biochemical; conditions: 28 nM Aurora B, 128 μM ATP; read-out: IC50 Ranges Aurora B
T2 construct: purchased Invitrogen PV3970
Description: Aurora B inhibition was determined using the Z-Lyte assay kit from Invitrogen. The assay was performed using the recommended manufacturer's instructions with 128 μM ATP and 28 nM Aurora B (Invitrogen cat #PV3970). The % inhibition values were determined according to the manufacturer's directions and IC50 values were obtained using a non-linear 4 point logistic curve fit (XLfit4, IDBS)

[3] = biological target: T3, human PLK4 (Homo sapiens, UniProt O00444); assay: PLK4 inhibition assay (indirect ELISA); type: biochemical; conditions: GST-PLK4 4 nM, 15 μM ATP; read-out: IC50 Ranges PLK4
T3 construct: amino terminal GST fusion of residues 1-391 of human PLK4; made in house; host or cells: E. coli
T3 sequence (O00444 1-391): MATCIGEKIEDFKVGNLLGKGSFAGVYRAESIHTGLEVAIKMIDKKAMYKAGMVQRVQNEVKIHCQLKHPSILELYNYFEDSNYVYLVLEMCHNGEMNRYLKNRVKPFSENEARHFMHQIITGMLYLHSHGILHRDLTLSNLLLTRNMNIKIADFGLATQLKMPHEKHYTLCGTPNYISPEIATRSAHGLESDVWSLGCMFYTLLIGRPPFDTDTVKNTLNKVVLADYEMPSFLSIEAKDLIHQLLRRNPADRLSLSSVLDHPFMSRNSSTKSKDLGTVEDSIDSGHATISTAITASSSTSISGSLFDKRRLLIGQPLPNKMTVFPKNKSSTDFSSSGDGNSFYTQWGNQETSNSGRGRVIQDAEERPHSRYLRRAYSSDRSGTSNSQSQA
How it was run: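 Dephosphorylated GST-tagged human PLK4 (residues 1-391, E. coli), 4 nM, preincubated 15 min with compound, then reacted 30 min with 15 μM ATP on MBP-coated plates (50 mM HEPES pH 7.5, 10 mM MgCl2, 0.01% Brij 35). Phospho-MBP detected by antibody ELISA at 450 nm. Tested at 10 μM or 10-point titrations; IC50 from 4-parameter logistic fit.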

[4] = tested on: PA-1 ovarian cancer cells; assay: Cell growth inhibition, Sulforhodamine B assay, PA-1; type: cell-based; conditions: 120 h, 5 days culture, SRB assay, read-out: Cell Line GI50 Range PA-1
[5] = tested on: HCT116 colon cancer cells; assay: Cell growth inhibition, Sulforhodamine B assay, HCT116; type: cell-based; conditions: Homo sapiens, HCT-116, 120 h, 5 days culture, SRB assay, read-out: Cell Line GI50 Range HCT116
[6] = tested on: MDA-MB-231 breast cancer cells; assay: Cell growth inhibition, Sulforhodamine B assay, MDA-MB-231; type: cell-based; conditions: Homo sapiens, 120 h, 5 days culture, SRB assay, read-out: Cell Line GI50 Range MDA-MB-231
[7] = tested on: HT29 colon cancer cells; assay: Cell growth inhibition, Sulforhodamine B assay, HT29; type: cell-based; conditions: Homo sapiens, HT-29, 120 h, 5 days culture, SRB assay, read-out: Cell Line GI50 Range HT29
[8] = tested on: MDA-MB-468 breast cancer cells; assay: Cell growth inhibition, Sulforhodamine B assay, MDA-MB-468; type: cell-based; conditions: Homo sapiens, 120 h, 5 days culture, SRB assay, read-out: Cell Line GI50 Range MDA-MB-468
[9] = tested on: OVCAR-3 ovarian cancer cells; assay: Cell growth inhibition, Sulforhodamine B assay, OVCAR-3; type: cell-based; conditions: Homo sapiens, 120 h, 5 days culture, SRB assay, read-out: Cell Line GI50 Range OVCAR-3

T2 sequence (Q96GD4 whole entry): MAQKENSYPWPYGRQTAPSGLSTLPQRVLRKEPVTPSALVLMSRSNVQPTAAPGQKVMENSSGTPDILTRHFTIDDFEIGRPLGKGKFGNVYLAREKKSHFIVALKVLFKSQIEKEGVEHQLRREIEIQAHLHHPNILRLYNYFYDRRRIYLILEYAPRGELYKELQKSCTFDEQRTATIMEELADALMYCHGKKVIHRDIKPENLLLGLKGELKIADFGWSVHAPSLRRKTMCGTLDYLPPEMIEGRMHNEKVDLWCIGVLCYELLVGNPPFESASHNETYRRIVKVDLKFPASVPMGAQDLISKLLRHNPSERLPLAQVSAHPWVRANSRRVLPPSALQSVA

| SMILES | IC50 [1] | IC50 [2] | IC50 [3] | GI50 [4] | GI50 [5] | GI50 [6] | GI50 [7] | GI50 [8] | GI50 [9] |
| --- | --- | --- | --- | --- | --- | --- | --- | --- | --- |
| CN1CCN(C)c2ccc(-c3n[nH]c4ccc(NC(=O)C(c5ccsc5)N5CCCC5)cc34)cc2C1 (stereo not drawn) [Example A93, N-(3-(1,4-dimethyl-2,3,4,5-tetrahydro-1H-benzo[e][1,4]diazepin-7-yl)-1H-indazol-5-yl)-2-(pyrrolidin-1-yl)-2-(thiophen-3-yl)acetamide] | ≤ 5 µM | ≤ 5 µM | ≤ 5 µM | ≤ 5 µM | ≤ 5 µM | ≤ 5 µM | ≤ 5 µM | ≤ 5 µM | 5 to 20 µM |
| CN1CCN(C(=O)c2cccc(-c3n[nH]c4ccc(NC(=O)C(c5ccsc5)N5CCCC5)cc34)c2)CC1 (stereo not drawn) [Example A96, N-(3-(3-(4-Methylpiperazine-1-carbonyl)phenyl)-1H-indazol-5-yl)-2-(pyrrolidin-1-yl)-2-(thiophen-3-yl)acetamide] | ≤ 5 µM | 5 to 50 µM | ≤ 5 µM | 5 to 20 µM | 5 to 20 µM | 5 to 20 µM | 5 to 20 µM | 5 to 20 µM | 5 to 20 µM |
| CN1CCC(Oc2cccc(-c3n[nH]c4ccc(NC(=O)C(c5ccsc5)N5CCCC5)cc34)c2)CC1 (stereo not drawn) [Example A99, N-(3-(3-((1-methylpiperidin-4-yl)oxy)phenyl)-1H-indazol-5-yl)-2-(pyrrolidin-1-yl)-2-(thiophen-3-yl)acetamide] | ≤ 5 µM | ≤ 5 µM | ≤ 5 µM | ≤ 5 µM | ≤ 5 µM | ≤ 5 µM | ≤ 5 µM | ≤ 5 µM | ≤ 5 µM |
| O=C(NC(c1ccccc1)C1CC1)c1ccc2[nH]nc(-c3ccc(OC4CCN(CCO)CC4)cc3)c2c1 (stereo not drawn) [Example A104, N-(cyclopropyl(phenyl)methyl)-3-(4-((1-(2-hydroxyethyl)piperidin-4-yl)oxy)phenyl)-1H-indazole-5-carboxamide] | ≤ 5 µM | ≤ 5 µM | ≤ 5 µM | ≤ 5 µM | ≤ 5 µM | ≤ 5 µM | ≤ 5 µM | ≤ 5 µM | ≤ 5 µM |
| CN1CCC(Oc2ccc(-c3n[nH]c4ccc(C(=O)NCc5ccccc5N5CCOCC5)cc34)cc2)CC1 [Example A108, 3-(4-(1-Methylpiperidin-4-yloxy)phenyl)-N-(2-morpholinobenzyl)-1H-indazole-5-carboxamide] | ≤ 5 µM | ≤ 5 µM | ≤ 5 µM | ≤ 5 µM | ≤ 5 µM | ≤ 5 µM | ≤ 5 µM | ≤ 5 µM | ≤ 5 µM |
| CN1CCC(Oc2ccc(-c3n[nH]c4ccc(C(=O)NCc5ccccc5CN5CCOCC5)cc34)cc2)CC1 [Example A109, 3-(4-(1-Methylpiperidin-4-yloxy)phenyl)-N-(2-(morpholinomethyl)benzyl)-1H-indazole-5-carboxamide] | ≤ 5 µM | ≤ 5 µM | ≤ 5 µM | ≤ 5 µM | ≤ 5 µM | ≤ 5 µM | ≤ 5 µM | ≤ 5 µM | ≤ 5 µM |
| CC(C)(O)C1CCN(c2ccc(-c3n[nH]c4ccc(C(=O)NC(c5ccccc5)C5CC5)cc34)cc2)CC1 (stereo not drawn) [Example A112, N-(cyclopropyl(phenyl)methyl)-3-(4-(4-(2-hydroxypropan-2-yl)piperidin-1-yl)phenyl)-1H-indazole-5-carboxamide] | ≤ 5 µM | ≤ 5 µM | ≤ 5 µM | ≤ 5 µM | ≤ 5 µM | ≤ 5 µM | ≤ 5 µM | ≤ 5 µM | ≤ 5 µM |
| CN1CCC(Oc2ccc(-c3n[nH]c4ccc(NC(=O)C(c5ccsc5)N5CCCC5)cc34)cc2N(C)C)CC1 (stereo not drawn) [Example A113, N-(3-(3-(dimethylamino)-4-((1-methylpiperidin-4-yl)oxy)phenyl)-1H-indazol-5-yl)-2-(pyrrolidin-1-yl)-2-(thiophen-3-yl)acetamide] | ≤ 5 µM | ≤ 5 µM | ≤ 5 µM | ≤ 5 µM | ≤ 5 µM | ≤ 5 µM | ≤ 5 µM | ≤ 5 µM | ≤ 5 µM |

Results, then the compound that gave them:

| IC50 [1] | IC50 [2] | IC50 [3] | GI50 [4] | GI50 [5] | GI50 [6] | GI50 [7] | GI50 [8] | GI50 [9] | SMILES |
| --- | --- | --- | --- | --- | --- | --- | --- | --- | --- |
| ≤ 5 µM | ≤ 5 µM | ≤ 5 µM | ≤ 5 µM | ≤ 5 µM | ≤ 5 µM | ≤ 5 µM | ≤ 5 µM | 20 to 50 µM | CCc1cccc(CC)c1NC(=O)Nc1ccc2[nH]nc(-c3ccc(C4CN(C)CCO4)cc3)c2c1 (stereo not drawn) [Example A124, 1-(2,6-diethylphenyl)-3-(3-(4-(4-methylmorpholin-2-yl)phenyl)-1H-indazol-5-yl)urea] |
| ≤ 5 µM | ≤ 5 µM | ≤ 5 µM | ≤ 5 µM | ≤ 5 µM | ≤ 5 µM | ≤ 5 µM | ≤ 5 µM | ≤ 5 µM | CN1CCC(Oc2ccc(-c3n[nH]c4ccc(C(=O)N[C@@H](CCO)c5ccccc5)cc34)cc2)CC1 [Example A125, (S)—N-(3-hydroxy-1-phenylpropyl)-3-(4-((1-methylpiperidin-4-yl)oxy)phenyl)-1H-indazole-5-carboxamide] |
| ≤ 5 µM | ≤ 5 µM | ≤ 5 µM | ≤ 5 µM | ≤ 5 µM | ≤ 5 µM | ≤ 5 µM | ≤ 5 µM | ≤ 5 µM | O=CN1CCC(Oc2ccc(-c3n[nH]c4ccc(C(=O)NC(c5ccccc5)C5CC5)cc34)cc2)CC1 (stereo not drawn) [Example A126, N-(cyclopropyl(phenyl)methyl)-3-(4-((1-formylpiperidin-4-yl)oxy)phenyl)-1H-indazole-5-carboxamide] |
| ≤ 5 µM | ≤ 5 µM | ≤ 5 µM | ≤ 5 µM | ≤ 5 µM | ≤ 5 µM | ≤ 5 µM | ≤ 5 µM | ≤ 5 µM | CN1CCOC(c2ccc(-c3n[nH]c4ccc(C(=O)NC(c5ccccc5)C5CC5)cc34)cc2)C1 (stereo not drawn) [Example A139, N-(cyclopropyl(phenyl)methyl)-3-(4-(4-methylmorpholin-2-yl)phenyl)-1H-indazole-5-carboxamide] |
